Test [1] relates to Bemisia tabaci. Briefly: Test Example 4: spray on tomato seedling carrying Bemisia tabaci eggs/larvae. In kind it is in vivo. The settings on record: 200 ppm, 10 ml/cup sprayed on tomato seedling, larvae checked after 7 days at 25° C., Formulation Example 5. The method, then: The present compounds (1), (4) to (7), (9) to (12) and (14) to (19) were formulated by the method in Formulation Example 5. This formulation was diluted with water so that the active ingredient concentration was 200 ppm, to prepare a diluted solution for test. On a tomato seedling planted in a plastic cup, Bemisia tabaci adult insects were released and allowed to lay eggs for about 24 hours. The tomato seedling was left in a greenhouse for 8 days. Thereafter, the diluted solution for test was sprayed in a proportion of 10 ml/cup. Further, this tomato seedling was placed in a greenhouse at 25° C. for 7 days. Thereafter, the number of larvae living on the tomato leaves was checked, and the control value was calculated according to the following formula. Control value (%)={1−(Cb×Tai)/(Cai×Tb)}×100 Letters in the formula represent the following meanings. Cb: insect number before treatment on non-treated area Cai: insect number in observation on non-treated area Tb: insect number before treatment on treated area Tai: insect number in observation on treated area

Test [2] relates to Aphis gossypii. Briefly: Test Example 3: treatment of the foot of a cucumber seedling, then inoculation with Aphis gossypii. Format: in vivo. The settings on record: 200 ppm, 5 ml at foot of cucumber seedling, inoculated after 7 days at 25° C., checked after 6 days, Formulation Example 5. As to the method: The present compound (7) was formulated by the method in Formulation Example 5. This formulation was diluted with water so that the active ingredient concentration was 200 ppm, to prepare a diluted solution for test. The diluted solution for test (5 ml) was used to treat a foot of a cucumber seedling (first true leaf spreading stage) planted in a plastic cup. This cucumber was left in a greenhouse at 25° C. for 7 days. Then; the cucumber leaf surface was inoculated with 30 Aphis gossypii (whole stage). This cucumber was further left in the greenhouse for 6 days, then, the insect number of living Aphis gossypii parasitic on the leaves of this cucumber was checked, and the control value was calculated according to the following formula. Control value (%)={1−(Cb×Tai)/(Cai×Tb)}×100 Letters in the formula represent the following meanings. Cb: insect number before treatment on non-treated area Cai: insect number in observation on non-treated area Tb: insect number before treatment on treated area Tai: insect number in observation on treated area

A value given as a limit tells only on which side of the number the result lay.

In turn, `Fc1cnccc1-c1nc2cc(C(F)(F)F)ccc2s1` [compound 1] gave a Control value in test [1] of no less than 90%.

In the case of `CCS(=O)(=O)c1cnccc1-c1nc2cc(C(F)(F)F)ccc2s1` [compound 7], the Control value in test [2] is given as no less than 90%.

The values are drawn from patent US8742112B2, “Heterocyclic compound and its use for control of an arthropod pest” (Sumitomo Chemical Company, Limited, priority 2009, dated 2014).
